Broadly, the pIC50 is the IC50 on a negative log10 scale, so that one unit is a factor of ten. Low values mean a high IC50, high ones a low IC50.

IC50 and viability data for seven compounds are collected here from ChEMBL document CHEMBL3351802, “Rupestonic acids B-G, NO inhibitory sesquiterpenoids from Artemisia rupestris” (Bioorg Med Chem Lett, 2014).

One series concerns BV-2. Kind of series: Inhibition of LPS-stimulated NO production in […] cells after 24 hrs by Griess assay. The format is functional, cell-based. To be noted: Mus musculus, BV-2, 24 h.
The nature of series [1]: Cytotoxicity against LPS-stimulated […] cells assessed as cell viability at 40 uM by MTT assay. The format is cell-based, BV-2. The settings on record: read-out: Activity.

Each structure is given as a SMILES string. pIC50: −log10 of the molar value.

In the case of `C=C(C(=O)O)[C@@H]1CC[C@H](C)[C@@]2(O)CC(=O)C(C)=C2C1`, the negative logarithm of the IC50 (pIC50) in the series on BV-2 is 4.54. Further, in series [1], the viability at 40 µM is 83.4%.

In the series with BV-2, `C=C(C(=O)O)[C@@H]1CC[C@H](C)[C@@H]2CC[C@](C)(O)[C@@]2(O)C1` showed a pIC50 of 5.59. The viability at 40 µM in series [1] is 78.8%.

`CC1=C2C[C@H](C(=O)O)CC[C@H](C)[C@@H]2CC1=O` showed a pIC50 with BV-2 of 5.05. The viability at 40 µM in series [1] was 77.6%.

For `C=C(C(=O)O)[C@@H]1CC[C@H](C)C2=C(C1)[C@](C)(O)CC2=O`, in the series on BV-2, the pIC50 was 4.61. Moreover, in series [1], the viability at 40 µM was 77%.

The compound `C=C(C(=O)O)[C@@H]1CC[C@H](C)[C@H]2C(=O)C=C(C)[C@]2(O)C1` had a pIC50 in the series on BV-2 of 4.69. In addition, in series [1], the viability at 40 µM amounted to 76.1%.

Take `C=C(C(=O)O)[C@@H]1CC[C@H](C)[C@H](CCC(C)=O)C(=O)C1`: the pIC50 in the series with BV-2 was 5.66. Moreover, in series [1], the viability at 40 µM stood at 76.6%.

For the compound `O=c1c(O)c(-c2ccc(O)c(O)c2)oc2cc(O)cc(O)c12` [QUERCETIN], in the series on BV-2, the pIC50 was 5.37. The viability at 40 µM in series [1] was 97%.
